“And” between values parts separate entries of the source, which are not always exact repeats. Identical values can stand only once. Non-standard residues stand in square brackets, D forms with d. Residues, ends and D or L forms follow the SMILES beside them. Nva = CCC[C@H](N)C(=O)O
Experiments:
[1] = tested on: AdipoR1 and AdipoR2 on HepG2 and LX2 cells; test: Cell confocal imaging, receptor binding of FITC labeled peptide (with AdipoR siRNA); parameters: species or system human; conditions: 37 °C, 2 or 4 h, AdipoR1/AdipoR2 siRNA as control, in words
Procedure: For in vitro receptor binding assay, 4E4 HepG2 cells or 2E4 LX2 cells were seeded on 35 mm glass bottom dish with 150 μL complete medium. Then cells were incubated with FITC labeled peptide for 4 h. The nuclei were stained with Hoechst 33342 (ThermoFisher, Scientific, USA). After washing with PBS, cells were visualized in a laser confocal microscope (Olympus FV3000, Japan). Cells with suppressed AdipoR1 and AdipoR2 expression with each specific siRNA were used as negative control.
AdipoR1 and AdipoR2 siRNA as well as mock siRNA were chemically synthesized (GenePharma, China) and transfected into 60–70% confluent HepG2 and LX2 cells using Lipofectamine 3000 (ThermoFisher Scientific, USA). Dilution of siRNA and Lipofectamine 3000 reagents as well as the transfection of cells were performed following the manufacturer’s protocol. For HepG2 cell model, 5E5 cells were plated in 6-well plates and transfected with 5 μL of 20 μM stock siRNA. At 48 h following transfection, the cells were processed for 0.25 mM PA and/or 200 μM JT003 treated for another 24 h. BSA was used as the negative control. For LX2 cell model, 2E5 cells were plated in 6-well plates and transfected with 5 μL of 20 μM stock siRNA. At 48 h following transfection, the cells were processed for JT003 or PBS treated for another 48 h. Next, cells were harvested for either western blot or qPCR assay.

[2] = tested on: gene expression in LX2 cells; test: Quantitative RT-PCR in LX2 cells; assay type: cell-based, human; parameters: key to Vimentin mRNA / CTGF mRNA / OPN mRNA / IL-6 mRNA / TNF mRNA / IL-1 mRNA / TIMP2 mRNA / MMP2 mRNA / MMP9 mRNA / MMP12 mRNA / MMP13 mRNA: relative mRNA expression normalized to β-actin
Procedure: Hepatoma carcinoma cell line HepG2 and human hepatic activated stellate cell line LX2 used in this study were purchased from Type Culture Collection of the Chinese Academy of Sciences (Shanghai, China). Cells were cultured in Dulbecco’s modified Eagle’s medium (DMEM) with 10% fetal bovine serum (FBS), supplemented with 1% penicillin–streptomycin (ThermoFisher Scientific, USA) at 37 °C in a humidified atmosphere of 5% CO2. In PA (Sigma, USA) induced lipid accumulation cell model, HepG2 cells were seeded into a 6-well plate at 5E5 cells per well. 0.25 mM PA and/or 200 μM candidate peptides were co-incubated with cells for 24 h. Then Oil Red O staining was performed to evaluate the accumulation of lipid droplets. BSA (Sigma, USA) was used in this experiment as the negative control. For LX2 cells, 2E5 cells were seeded, then the adherent cells were exposed to 200 μM candidate peptides for another 48 h. Next, the cell protein was obtained and western blotting was performed. Candidate peptides were diluted in DMEM in a stock concentration of 1 M.
Liver total RNA was extracted by using Trizol reagent following the manufacture’s instruction (TransGen Biotech, China). The concentration of RNA was measured by Nanodrop 2000 (ThermoFisher Scientific, USA). cDNA was transcribed from 10ug total RNA with First Strand cDNA synthesis Super Mix (TransGen Biotech, China). The cDNA was diluted 1/50 and 1.0 uL were used as a template for qPCR. qPCR was performed with SYBR Green qPCR Super Mix (TransGen Biotech, China) in the Light Cycler 480 Real-Time PCR System (Roche, Swiss). Reference gene β-actin was used for data normalization. mRNA expression was analyzed with specific primers listed in Supplementary Table 2.

[3] = Figure 6a left, LX2 cells, JT003 vs Vehicle, single replicates, n = 4
[4] = Figure 6a right, LX2 cells, JT003 vs Vehicle, single replicates, n = 4

CCC[C@H](NC(=O)[C@@H]1CCCN1)C(=O)N[C@@H](CC(C)C)C(=O)N[C@@H](Cc1ccc(O)cc1)C(=O)N[C@@H](Cc1ccc(O)cc1)C(=O)N[C@@H](Cc1ccccc1)C(=O)N[C@@H](C)C(N)=O [JT003] (H-P[Nva]LYYFA-NH2)
binding to AdipoRs on the cell membrane (confocal, FITC) [1]: could specifically bind to AdipoR1 and/or AdipoR2 on the cell membrane | MMP2 mRNA [2, 3]: 1.293 and 0.7704 and 1.1819 and 1.0719 | MMP9 mRNA [2, 3]: 2.131 and 1.538 and 2.384 and 1.884 | MMP12 mRNA [2, 3]: 1.826 and 1.7 and 2.413 and 1.763 | MMP13 mRNA [2, 3]: 2.514 and 2.381 and 3.247 and 2.347 | TIMP2 mRNA [2, 3]: 0.8037 and 0.8728 and 0.6883 and 0.7883 | CTGF mRNA [2, 4]: 0.7417 and 0.5541 and 0.6479 and 0.621 | IL-1 mRNA [2, 4]: 0.9119 and 0.6477 and 0.5242 and 0.686 | IL-6 mRNA [2, 4]: 0.6335 and 0.6954 and 0.6645 and 0.66 | OPN mRNA [2, 4]: 0.8619 and 0.7815 and 0.9867 and 0.8941 | TNF mRNA [2, 4]: 0.6949 and 0.8263 and 0.7906 and 0.7334 | Vimentin mRNA [2, 4]: 0.6199 and 0.6972 and 0.6586 and 0.5779 | IL-1a mRNA, relative expression, Supplementary Figure 15a ([2]; JT003 vs Vehicle, replicate 1): 0.9119 | IL-6 mRNA, relative expression, Supplementary Figure 15a ([2]; JT003 vs Vehicle, replicate 1): 1.034 | TNFa mRNA, relative expression, Supplementary Figure 15a ([2]; JT003 vs Vehicle, replicate 1): 0.6949 | iNOS mRNA, relative expression, Supplementary Figure 15a ([2]; JT003 vs Vehicle, replicate 1): 1.242 | IL-1a mRNA, relative expression, Supplementary Figure 15a ([2]; JT003 vs Vehicle, replicate 2): 0.5774 | IL-6 mRNA, relative expression, Supplementary Figure 15a ([2]; JT003 vs Vehicle, replicate 2): 0.932 | TNFa mRNA, relative expression, Supplementary Figure 15a ([2]; JT003 vs Vehicle, replicate 2): 0.8263 | iNOS mRNA, relative expression, Supplementary Figure 15a ([2]; JT003 vs Vehicle, replicate 2): 1.188 | IL-1a mRNA, relative expression, Supplementary Figure 15a ([2]; JT003 vs Vehicle, replicate 3): 0.5946 | IL-6 mRNA, relative expression, Supplementary Figure 15a ([2]; JT003 vs Vehicle, replicate 3): 0.9828 | TNFa mRNA, relative expression, Supplementary Figure 15a ([2]; JT003 vs Vehicle, replicate 3): 0.7606 | iNOS mRNA, relative expression, Supplementary Figure 15a ([2]; JT003 vs Vehicle, replicate 3): 0.8438 | IL-1a mRNA, relative expression, Supplementary Figure 15a ([2]; JT003 vs Vehicle, replicate 4): 0.706 | IL-6 mRNA, relative expression, Supplementary Figure 15a ([2]; JT003 vs Vehicle, replicate 4): 0.9774 | TNFa mRNA, relative expression, Supplementary Figure 15a ([2]; JT003 vs Vehicle, replicate 4): 0.7834 | iNOS mRNA, relative expression, Supplementary Figure 15a ([2]; JT003 vs Vehicle, replicate 4): 0.9516 | HSC activation factors (Vimentin, CTGF, OPN, IL-6, TNFα and IL-1α) ([2]; LX2, 200 μM JT003, in words): significantly suppressed | expression of ER-mitochondrial function-related markers ([2]; LX2, 200 μM JT003, in words): improved | expression of genes involved in ECM accumulation (TIMP1) and degradation (MMP9, MMP12, MMP13) ([2]; LX2, 200 μM JT003, in words): notably altered | inflammation related genes (TNFα, IL-1α, IL-6 and iNOS) ([2]; LX2, 200 μM JT003, in words): suppressed

From publication PMC7669869, “AdipoR1/AdipoR2 dual agonist recovers nonalcoholic steatohepatitis and related fibrosis via endoplasmic reticulum-mitochondria axis” (Nature Communications, 2020)
